Data reported in patent publication US8288387B2, “Napthalimide-benzimidazole hybrids as potential antitumor agents and process for the preparation thereof” (Council of Scientific & Industrial Research, priority 2008, dated 2012).

Experiments:
[1] = test system: T-47D; experiment: In vitro one dose primary anticancer assay, T-47D; type: cell-based, human; details: Breast (T-47D), 10^−5 Molar concentration
Method: (§1) Anticancer activity: In vitro biological activity studies were carried out at the National Cancer Institute (USA).
(§2) The compounds 5a-b evaluated for in vitro anticancer activity against sixty human tumour cells derived from nine cancer types (leukemia, non-small-cell lung, colon, CNS, melanoma, ovarian, prostate, and breast cancer) as shown in Table 1. For each compound, dose response curves for each cell line were measured at a minimum of five concentrations at 10 fold dilutions. A protocol of 48 h continuous drug exposure was used and a sulforhodamine B (SRB) protein assay was used to estimate cell viability or growth. The concentration causing 50% cell growth inhibition (GI50), total cell growth inhibition (TGI 0% growth) and 50% cell death (LC50, −50% growth) compared with the control was calculated. […] The MG MID of log TGI and log LC50 have shown similar pattern to the log GI50 MG MID. The other compounds 9a-c evaluated for in vitro one dose anticancer activity against nine human tumor cell panels containing sixty cell lines in percent growth inhibition values are listed in Table 3.

[2] = test system: OVCAR8; experiment: In vitro one dose primary anticancer assay, OVCAR8; type: cell-based, human; details: Ovarian (OVCAR8), 10^−5 Molar concentration
Method: as §1, §2

[3] = test system: HL-60; experiment: In vitro one dose primary anticancer assay, HL-60; type: cell-based, human; details: Leukemia (HL-60), 10^−5 Molar concentration
Method: as §1, §2

[4] = test system: UO-31; experiment: In vitro one dose primary anticancer assay, UO-31; type: cell-based, human; details: Renal (UO-31), 10^−5 Molar concentration
Method: as §1, §2

[5] = test system: SF-295; experiment: In vitro one dose primary anticancer assay, SF-295; type: cell-based, human; details: CNS (SF-295), 10^−5 Molar concentration
Method: as §1, §2

[6] = test system: K-562; experiment: NCI in vitro anticancer SRB assay, K-562; type: cell-based, human; details: K-562, Leukemia
Method: as §1, §2

[7] = test system: EKVX; experiment: NCI in vitro anticancer SRB assay, EKVX; type: cell-based, human; details: Non-Small Cell Lung Cancer
Method: as §1, §2

[8] = test system: NCI-H322M; experiment: NCI in vitro anticancer SRB assay, NCI-H322M; type: cell-based, human; details: Non-Small Cell Lung Cancer
Method: as §1, §2

[9] = test system: HCT-116; experiment: NCI in vitro anticancer SRB assay, HCT-116; type: cell-based, human; details: HCT-116, Colon Cancer
Method: as §1, §2

[10] = test system: KM12; experiment: NCI in vitro anticancer SRB assay, KM12; type: cell-based, human; details: KM12, Colon Cancer
Method: as §1, §2

[11] = test system: SW-620; experiment: NCI in vitro anticancer SRB assay, SW-620; type: cell-based, human; details: SW-620, Colon Cancer
Method: as §1, §2

[12] = test system: SF-539; experiment: NCI in vitro anticancer SRB assay, SF-539; type: cell-based, human; details: SF-539, CNS Cancer
Method: as §1, §2

[13] = test system: U251; experiment: NCI in vitro anticancer SRB assay, U251; type: cell-based, human; details: U251, CNS Cancer
Method: as §1, §2

[14] = test system: MALME-3M; experiment: NCI in vitro anticancer SRB assay, MALME-3M; type: cell-based, human; details: Melanoma
Method: as §1, §2

[15] = test system: SK-MEL-28; experiment: NCI in vitro anticancer SRB assay, SK-MEL-28; type: cell-based, human; details: SK-MEL-28, Melanoma
Method: as §1, §2

[16] = test system: SK-MEL-5; experiment: NCI in vitro anticancer SRB assay, SK-MEL-5; type: cell-based, human; details: SK-MEL-5, Melanoma
Method: as §1, §2

[17] = test system: OVCAR-4; experiment: NCI in vitro anticancer SRB assay, OVCAR-4; type: cell-based, human; details: OVCAR-4, Ovarian Cancer
Method: as §1, §2

[18] = test system: 786-0; experiment: NCI in vitro anticancer SRB assay, 786-0; type: cell-based, human; details: 786-0, Renal Cancer
Method: as §1, §2

[19] = test system: RXF 393; experiment: NCI in vitro anticancer SRB assay, RXF 393; type: cell-based, human; details: RXF 393, Renal Cancer
Method: as §1, §2

[20] = test system: DU 145; experiment: NCI in vitro anticancer SRB assay, DU 145; type: cell-based, human; details: DU 145, Prostate Cancer
Method: as §1, §2

[21] = test system: MCF7; experiment: NCI in vitro anticancer SRB assay, MCF7; type: cell-based, human; details: MCF7, Breast Cancer
Method: as §1, §2

[22] = test system: MDA-MB-231/ATCC; experiment: NCI in vitro anticancer SRB assay, MDA-MB-231/ATCC; type: cell-based, human; details: Breast Cancer
Method: as §1, §2

[23] = test system: HS 578T; experiment: NCI in vitro anticancer SRB assay, HS 578T; type: cell-based, human; details: Breast Cancer
Method: as §1, §2

[24] = test system: T-47D; experiment: NCI in vitro anticancer SRB assay, T-47D; type: cell-based, human; details: Breast Cancer
Method: as §1, §2

[25] = test system: BT-549; experiment: NCI in vitro anticancer SRB assay, BT-549; type: cell-based, human; details: BT-549, Breast Cancer
Method: as §1, §2

[26] = test system: sixty human tumour cells; experiment: In vitro cytotoxicity, mean graph midpoints over all cell lines; type: cell-based; details: mean graph midpoint
Method: as §1, §2

[27] = test system: SNB-75; experiment: NCI in vitro anticancer SRB assay, SNB-75; type: cell-based; details: Homo sapiens, SNB-75, CNS Cancer
Method: as §1, §2

[28] = log10 of drug concentration causing 50% cell death (−50%)
[29] = log10 of drug concentration causing total cell growth inhibition (0% growth)
[30] = log10 of drug molar concentration causing 50% cell growth inhibition
[31] = Homo sapiens, 48 h drug exposure, SRB
[32] = Homo sapiens, repeat test values

Compound: 2-{4-[4-(4-[4-(6-morpholino-2-benzimidazolyl)phenoxy]butyl)piperazino]butyl}napthalimide [Compound 9b]
- % GI (percent growth inhibition) [1]: 50%
- % GI (percent growth inhibition) [2]: 78%
- % GI (percent growth inhibition) [3]: 50%
- % GI (percent growth inhibition) [4]: 68%
- % GI (percent growth inhibition) [5]: 50%

Compound: 2-{4-[4-(6-morpholino-2-benzimidazolyl)phenoxy]butyl}naphthalimide [Compound 5b]
- GI50 ([6]; 48 h drug exposure, SRB): 2970 nM
- GI50 ([6]; repeat test values): 3250 nM
- GI50 ([7]; 48 h drug exposure, SRB): 12.2 µM
- GI50 ([7]; repeat test values): 25.4 µM
- GI50 ([8]; 48 h drug exposure, SRB): 110 nM
- GI50 ([8]; repeat test values): 40700 nM
- GI50 ([9]; 48 h drug exposure, SRB): 1760 nM
- GI50 ([10]; 48 h drug exposure, SRB): 1140 nM
- GI50 ([10]; repeat test values): 7250 nM
- GI50 ([11]; 48 h drug exposure, SRB): 3190 nM
- GI50 ([11]; repeat test values): 4490 nM
- GI50 ([12]; 48 h drug exposure, SRB): 1700 nM
- GI50 ([12]; repeat test values): 1600 nM
- GI50 ([13]; 48 h drug exposure, SRB): 1410 nM
- GI50 ([13]; repeat test values): 1660 nM
- GI50 ([14]; 48 h drug exposure, SRB): 90 nM
- GI50 ([14]; repeat test values): 3340 nM
- GI50 ([15]; 48 h drug exposure, SRB): 1300 nM
- GI50 ([15]; repeat test values): 1560 nM
- GI50 ([16]; 48 h drug exposure, SRB): 1440 nM
- GI50 ([16]; repeat test values): 1770 nM
- GI50 ([17]; 48 h drug exposure, SRB): 1470 nM
- GI50 ([17]; repeat test values): 2210 nM
- GI50 ([18]; 48 h drug exposure, SRB): 1210 nM
- GI50 ([18]; repeat test values): 1370 nM
- GI50 ([19]; 48 h drug exposure, SRB): 850 nM
- GI50 ([19]; repeat test values): 340 nM
- GI50 ([20]; 48 h drug exposure, SRB): 3270 nM
- GI50 ([20]; repeat test values): 4560 nM
- GI50 ([21]; 48 h drug exposure, SRB): 3330 nM
- GI50 ([21]; repeat test values): 2560 nM
- GI50 ([22]; 48 h drug exposure, SRB): 2510 nM
- GI50 ([22]; repeat test values): 4250 nM
- GI50 ([23]; 48 h drug exposure, SRB): 990 nM
- GI50 ([23]; repeat test values): 4680 nM
- GI50 ([24]; 48 h drug exposure, SRB): 2200 nM
- GI50 ([24]; repeat test values): 4320 nM
- GI50 ([25]; 48 h drug exposure, SRB): 1450 nM
- GI50 ([25]; repeat test values): 1540 nM
- Log LC50 MG MID [26, 28]: −4.46
- Log TGI MG MID [26, 29]: −4.94
- Log GI50 MG MID [26, 30]: −5.54
- Log GI50 MG MID ([26]; repeated test values): −5.35
- Log LC50 MG MID ([26]; repeated test values): −4.27
- Log TGI MG MID ([26]; repeated test values): −4.71

Compound: CN1CCN(c2ccc3nc(-c4ccc(OCCCN5C(=O)c6cccc7cccc(c67)C5=O)cc4)[nH]c3c2)CC1 [Compound 5a, 2-{3-[4-(6-[4-methylpiperazino]2-benzimidazolyl)phenoxy]propyl}napthalimide]
- GI50 ([6]; Homo sapiens, K562, 48 h drug exposure, SRB): 490 nM
- GI50 ([6]; Homo sapiens, K562, repeat test values): 1580 nM
- GI50 [7, 31]: 1.37 µM
- GI50 [7, 32]: 1.83 µM
- GI50 [8, 31]: 1810 nM
- GI50 [8, 32]: 1640 nM
- GI50 [9, 31]: 1760 nM
- GI50 [9, 32]: 1640 nM
- GI50 [10, 31]: 1720 nM
- GI50 [10, 32]: 2030 nM
- GI50 [11, 31]: 1700 nM
- GI50 [11, 32]: 1830 nM
- GI50 [12, 31]: 1640 nM
- GI50 [12, 32]: 1860 nM
- GI50 ([27]; 48 h drug exposure, SRB): 20 nM
- GI50 ([27]; repeat test values): 1770 nM
- GI50 ([13]; Homo sapiens, U-251, 48 h drug exposure, SRB): 1780 nM
- GI50 ([13]; Homo sapiens, U-251, repeat test values): 1970 nM
- GI50 [14, 31]: 7660 nM
- GI50 [14, 32]: 2560 nM
- GI50 [15, 31]: 1480 nM
- GI50 [15, 32]: 1800 nM
- GI50 [16, 31]: 1690 nM
- GI50 [16, 32]: 1600 nM
- GI50 [17, 31]: 1580 nM
- GI50 [17, 32]: 1850 nM
- GI50 [18, 31]: 1530 nM
- GI50 [18, 32]: 1740 nM
- GI50 [19, 32]: 10000 nM
- GI50 [20, 31]: 1450 nM
- GI50 [20, 32]: 1740 nM
- GI50 [21, 31]: 1440 nM
- GI50 [21, 32]: 1500 nM
- GI50 [22, 31]: 1510 nM
- GI50 [22, 32]: 1410 nM
- GI50 [23, 31]: 2100 nM
- GI50 [23, 32]: 2110 nM
- GI50 ([24]; Homo sapiens, T47D, 48 h drug exposure, SRB): 1540 nM
- GI50 ([24]; Homo sapiens, T47D, repeat test values): 2660 nM
- GI50 [25, 32]: 4800 nM
- Log LC50 MG MID [26, 28]: −4.20
- Log TGI MG MID [26, 29]: −4.80
- Log GI50 MG MID [26, 30]: −5.34
- Log GI50 MG MID ([26]; repeated test values): −5.62
- Log LC50 MG MID ([26]; repeated test values): −4.39
- Log TGI MG MID ([26]; repeated test values): −5.08

Compound: 2-{5-[4-(5-[4-(6-morpholino-2-benzimidazolyl)phenoxy]pentyl)piperazino]pentyl}napthalimide [Compound 9c]
- % GI (percent growth inhibition) [1]: 99%
- % GI (percent growth inhibition) [2]: 89%
- % GI (percent growth inhibition) [3]: 97%
- % GI (percent growth inhibition) [4]: 96%
- % GI (percent growth inhibition) [5]: 84%

Compound: 2-{4-[4-(4-[4-(6-[4-methylpiperazino]-2-benzimidazolyl)phenoxy]butyl)piperazino]butyl}napthalimide [Compound 9a]
- % GI (percent growth inhibition) [1]: 64%
- % GI (percent growth inhibition) [2]: 77%
- % GI (percent growth inhibition) [3]: 84%
- % GI (percent growth inhibition) [4]: 85%
- % GI (percent growth inhibition) [5]: 71%
